Holding throughout (format): cell-based
The subject of experiment [1] is dendritic cells induced from C57BL/6 mouse bone marrow cells with Flt-3L (mDCs, CD11c+CD11b+). Description: Regulatory DC-inducing activity of 14-dehydroergosterol (Example 9). The protocol: Regulatory DC induction activity was evaluated for 14-dehydroergosterol (14-DHE) isolated and purified from wheat bran fermented with koji as described above and subjected to structural determination. As controls, ergosterol (Wako Pure Chemical Industries, Japan) and 9(11)-dehydroergosterol (9(11)-DHE) (Sigma-Aldrich Corp.), which are ergosterol-related substances, were used. Also, as conjugated linoleic acid (CLA) that was reported in connection with the inhibition of DC activation in the past, CLA (9Z, 11E) and CLA (10E, 12Z) (both, Cayman Chemical), and linoleic acid (Wako Pure Chemical Industries, Japan) were also subjected to activity determination (J. Immunol., 175(8): 4990-8, Oct. 15, 2005). As negative controls, a sample (none) to which no compound had been administered and a sample (ctrl) to which only LPS had been administered were also subjected to activity determination.
In a manner similar to Example 2, bone marrow cells were prepared from C57BL/6 mouse thigh bone, and then dendritic cells were induced using Flt-3L. Each test substance was added simultaneously with the initiation of culture at a concentration of 1 μM, 5 μM, or 10 μM. Seven days later, LPS (from Salmonella typhosa) (Sigma-Aldrich Corp.) was added at 5 ng/mL and then 24 hours later the cells were recovered. Subsequently, the cells were stained for the following cell markers and then subjected to flow cytometry analysis. All antibodies used were produced by Becton, Dickinson and Company. CD11c^+CD11b^+ was set as a gate for mDCs and then the expression levels of CD40, CD80, CD86, I-A/I-E, and ICOS-L were measured. Also, IL-12p40 and IL-10 in culture supernatants were measured by ELISA.

In experiment [2] the test system is human DCs from peripheral blood CD14-positive cells. Description: Human regulatory DC-inducing activity of 14-DHE (Example 16). As to conditions: 14-DHE 1, 3 or 10 μM; ergosterol 10 μM; LPS/IFN-γ or cytokine cocktail 24 h. The protocol:
Mononuclear cells were prepared from human peripheral blood by density-gradient centrifugation using Ficoll-Paque (GE Healthcare, Japan). These cells were subjected to positive selection using anti-human CD14 MACS beads (Miltenyi Biotec), so that CD14-positive cells were obtained. CD14-positive cells were cultured in RPMI1640 media (containing 10% FBS (Invitrogen), 50 μmol/L 2-mercaptoethanol (Wako Pure Chemical Industries, Japan), 50 U/mL penicillin, and 50 μg/mL streptomycin (Gibco) (Sigma Aldrich)) supplemented with recombinant human GM-CSF (800 U/mL, Leukine, Berlex) and recombinant human IL-4 (100 ng/mL, Peprotech). During culture, medium exchange was performed once every 2 days. On day 7 of culture, 14-DHE was added at a concentration of 1 μM, 3 μM, or 10 μM. To a control, 10 μM ergosterol, which was a related substance, was added. Also, to a negative control, 1% ethanol, which was a solvent for 14-DHE, was added. The cells were recovered on day 8 of culture, counted, and then suspended at a density of 3×10^5 cells/mL in the above media. To cell suspensions, 1 μg/mL LPS and 100 ng/mL IFN-γ (both, Sigma Aldrich), or cytokine cocktail (1 μg/mL PGE2 (Sigma Aldrich), 10 ng/mL TNF-α, 2 μg/mL IL-6, and 10 ng/mL IL-1β (3 (all, BD Bioscience)) were added, followed by 24-hour culture. After culture, the cells were stained for CD86, HLA-DR, and CD80. Antibodies used were all produced by BD Bioscience. The gate of DCs was set by FSC and SSC, and the expression levels of these cell surface markers were analyzed.

The subject of experiment [3] is DCs induced from C57BL/6 mouse bone marrow cells with Flt-3L. Description: Comparison with known regulatory DC-inducing agents, DC induction system using Flt-3L (Example 3). As to conditions: Flt-3L system, extract and γ-oryzanol 50 μg/mL, LPS 1 ng/mL. The protocol:
(§1) The hexane fraction (No. 8) (in Table 1) prepared in Example 1 from wheat bran fermented with koji was used for the test. Since GM-CSF is used as a DC-inducing agent in the above-mentioned reports concerning rapamycin and IL-10/TGF-β, DCs were induced in each system of GM-CSF and Flt-3L and then each regulatory DC-inducing agent was evaluated.
In a manner similar to the experimental method in Example 2, bone marrow cells were prepared from C57BL/6 mouse thigh bone, the cells were suspended at 1×10^6 cells/mL in a medium, and then Flt-3L was added at 100 ng/mL. An extract from wheat bran fermented with koji, γ-oryzanol (Wako Pure Chemical Industries, Japan), or IL-10/TGF-β (produced by R&D systems and Peprotech, respectively) were added at 50 μg/mL for the former two or at 20 ng/mL for the latter two on day 0 after the initiation of culture. Rapamycin (Wako Pure Chemical Industries, Japan) was added at 10 ng/mL on day 3 after the initiation of culture. Culture was performed for 7 days and, at the time point of the last 24 hours of culture, LPS was added in a final concentration of 1 ng/mL.
Regarding an evaluation method, expression intensities of the cell-surface DC activation markers CD40, CD86 and MHCII and the suppression marker PD1L were evaluated by analysis using a flow cytometer. A gate was set on mDCs similarly to Example 1 and then analysis was conducted. Staining was performed using anti-CD11c-APC, anti-CD11b-APC-Cy7, anti-B220-PerCP, anti-CD40-FITC and anti-CD86-PE, or anti-CD11c-APC, anti-CD11b-APC-Cy7, anti-B220-PerCP, anti-MHCII-FITC, and anti-PD1L-PE (all available from Becton, Dickinson and Company) and then analysis was conducted.

Experiment [4] concerns DCs induced from C57BL/6 mouse bone marrow cells with GM-CSF. Put plainly: Comparison with known regulatory DC-inducing agents, DC induction system using GM-CSF (Example 3). The conditions noted are these: 50 μg/mL. As for the experimental part: as §1
In a manner similar to the experimental method in […], bone marrow cells were prepared from C57BL/6 mouse thigh bone, the cells were suspended at a concentration of 2×10^5 cells/mL in a medium, and then 20 ng/ml GM-CSF (R&D systems) was added. The concentration and timing of the added test substance were similar to those in the above examples.
Regarding an evaluation method, expression intensities of the cell-surface DC activation markers CD40, CD86 and MHCII and the suppression marker PD1L were evaluated by analysis using a flow cytometer. In the case of the DC induction using GM-CSF, only mDC was generated. As in the case of Flt-3L, a gate was set on mDCs defined by CD11c^+CD11b^+B220^− and then analysis was conducted.

As for `CC(C)[C@@H](C)C=C[C@@H](C)[C@H]1CC[C@H]2C3=CC=C4C[C@@H](O)CC[C@]4(C)C3=CC[C@]12C` [9(11)-DHE, 9(11)-dehydroergosterol, reference compound], in experiment [1] (1, 5 or 10 μM, LPS 5 ng/mL, culture supernatant), the “expression of inflammatory cytokine IL-12p40 (ELISA)” value is “a slight decrease was observed”. For the same compound, the “expression levels of I-A/I-E, CD40, CD80 and CD86” value in experiment [1] (maximum concentration (10 μM), LPS 5 ng/mL 24 h) is on record as “slight decrease”.

With `CC(C)[C@@H](C)/C=C/[C@@H](C)[C@H]1CC[C@H]2C3=CC=C4C[C@@H](O)CC[C@]4(C)[C@H]3CC[C@]12C` [Ergosterol, ergosterol, reference compound], in experiment [2], the “expression level of CD80 on human DCs” value was “did not affect”, the “expression level of CD86 on human DCs” value is recorded as “did not affect” and the “expression level of MHC class II molecule HLA-DR on human DCs” value was “did not affect”.

On to γ-oryzanol, for which, in experiment [3], the “MHCII expression in response to LPS stimulation” value is recorded as “no fluctuation was observed”. Moreover, in experiment [3] (rapamycin 10 ng/mL from day 3), the “CD40 expression in response to LPS stimulation” value is on record as “no fluctuation was observed” and the “CD86 expression in response to LPS stimulation” value is recorded as “no fluctuation was observed”. Also, in experiment [4], the “expression of DC activation markers in response to LPS stimulation” value was “strong increases were observed”.
